The source of these data is ChEMBL document CHEMBL3616435, “Cytotoxic cardenolides from the latex of Calotropis procera” (Bioorg Med Chem Lett, 2015).

The structures appear in SMILES notation. Some results are limits rather than exact numbers.

The assay concerns Mycobacterium tuberculosis. The assay can be described thus: Antimicrobial activity against Mycobacterium bovis BCG after 3 days by broth microdilution method. In kind it is functional. To be noted: variant bovis BCG, 72 h. A general note: Dilution methods test growth across graded concentrations, often in twofold steps.
`CO[C@@H]1C[C@@H](C)C[C@H]2O[C@@H]3C[C@@H]4CC[C@@H]5[C@H](CC[C@]6(C)[C@@H](C7=CC(=O)OC7)C[C@@H](O)[C@]56O)[C@@]4(C=O)C[C@H]3O[C@@]12O`: the MIC (as a rule, the lowest concentration found to suppress growth) was over 80 µg/mL. On to `C[C@@H]1C[C@@H](O)[C@]2(O)O[C@@H]3C[C@@]4(C)[C@@H](CC[C@@H]5[C@@H]4CC[C@]4(C)[C@@H](C6=CC(=O)OC6)C[C@@H](O)[C@]54O)C[C@H]3O[C@@H]2C1`, for which the MIC was over 80 µg/mL. In turn, `C[C@]12[C@H](O)C[C@H]3[C@@H](CC[C@H]4C[C@@H](O)CC[C@@]43CO)[C@@]1(O)CC[C@@H]2C1=CC(=O)OC1` had an MIC of over 80 µg/mL. The molecule `C[C@@H]1C[C@@H](O)[C@]2(O)O[C@@H]3C[C@@]4(C=O)[C@@H](CC[C@@H]5[C@@H]4CC[C@]4(C)[C@@H](C6=CC(=O)OC6)C[C@@H](O)[C@]54O)C[C@H]3O[C@@H]2C1` yielded an MIC of over 80 µg/mL. `C[C@]12[C@H](O)C[C@H]3[C@@H](CC[C@H]4C[C@H](O)CC[C@@]43C=O)[C@@]1(O)CC[C@@H]2C1=CC(=O)OC1` registered an MIC of over 80 µg/mL. With `C[C@H]1C[C@H]2O[C@@H]3C[C@@H]4CC[C@@H]5[C@H](CC[C@]6(C)[C@@H](C7=CC(=O)OC7)C[C@@H](O)[C@]56O)[C@@]4(C=O)C[C@H]3O[C@@]2(O)[C@@]2(C1)N=CCS2`, the MIC was over 80 µg/mL. To `C[C@@H]1C[C@@H](O)[C@]2(O)O[C@@H]3C[C@@]4(C=O)[C@@H](CC[C@@H]5[C@@H]4CC[C@]4(C)[C@@H](C6=CC(=O)OC6)CC[C@]54O)C[C@H]3O[C@@H]2O1` [CALACTIN] belongs over 80 µg/mL; to `C[C@]12[C@H](O)C[C@H]3[C@@H](CC[C@H]4C[C@H](O)CC[C@@]43CO)[C@@]1(O)CC[C@@H]2C1=CC(=O)OC1`, over 80 µg/mL; to `C[C@@H]1C[C@@]2(N=CCS2)[C@]2(O)O[C@@H]3C[C@@]4(C=O)[C@@H](CC[C@@H]5[C@@H]4CC[C@]4(C)[C@@H](C6=CC(=O)OC6)CC[C@]54O)C[C@H]3O[C@@H]2O1` [USCHARIN], over 80 µg/mL. The molecule `C[C@H]1C[C@H]2O[C@@H]3C[C@@H]4CC[C@@H]5[C@H](CC[C@]6(C)[C@@H](C7=CC(=O)OC7)CC[C@]56O)[C@@]4(C=O)C[C@H]3O[C@@]2(O)[C@H](O)[C@@H]1O` yielded an MIC of over 80 µg/mL. On to `C[C@]12C[C@@H](O)[C@H](O)C[C@@H]1CC[C@@H]1[C@@H]2CC[C@]2(C)[C@@H](C3=CC(=O)OC3)C[C@@H](O)[C@]12O`, for which the MIC is over 80 µg/mL.
